According to ChEMBL document CHEMBL1201862, “PubChem BioAssay data set” (2004):
Activity calls are given as the source filed them.

Key:
Vero = experiment: viability of Vero cells under compound – cytotoxicity control for flavivirus capping enzyme inhibitors (AID 588742); assay type: functional; settings: Chlorocebus sabaeus
Genome polyprotein = Genome polyprotein (dengue virus type 2, UniProt P29990); experiment: flavivirus cap methylation enzyme inhibition – biochemical, confirmation dose response, primary screen (AID 588689); assay type: functional
Jurkat = experiment: SAR Analysis of small molecule inhibitors of […] specific antigen receptor-induced NF-kB activation in a Jurkat cell line using a luminescence assay - Set 3. [Related pubchem assays (depositor defined):AID435022, AID435025, AID465]; assay type: functional, cell-based; settings: Homo sapiens
HEK293 [1] = experiment: SAR Analysis of small molecule inhibitors of B-cell specific antigen receptor-induced NF-kB activation in a HEK-293T cell line using a luminescence assay - Set 2. [Related pubchem assays (depositor defined):AID435022, AID435025, AID489021]; assay type: functional, cell-based; settings: Homo sapiens
HEK293 [2] = experiment: HEK293T cell viability loss, resazurin readout – resazurin fluorescence, cytotoxicity control for NF-kB activator project, SAR follow-up (AID 493251); assay type: functional, cell-based; settings: Homo sapiens
[3] = target: Dual specificity protein kinase CLK1 (Homo sapiens, UniProt P49759); experiment: inhibition of human CLK1 activity – biochemical, cherry-picked samples, selectivity assay for Dyrk1A inhibitor project, dose response (AID 588811)
[4] = target: Cyclin-dependent kinase 2 (Homo sapiens, UniProt P24941); experiment: inhibition of human CDK2/cyclin A – biochemical, cherry-picked samples, selectivity assay for Dyrk1A inhibitor project, dose response (AID 602127)
[5] = target: T1, Sentrin-specific protease 6 (Homo sapiens, UniProt Q9GZR1); experiment: inhibition of human SENP6 catalytic domain – biochemical, luminescence, set 2, SAR follow-up (AID 588598); assay type: functional
T1 sequence (Q9GZR1 whole entry): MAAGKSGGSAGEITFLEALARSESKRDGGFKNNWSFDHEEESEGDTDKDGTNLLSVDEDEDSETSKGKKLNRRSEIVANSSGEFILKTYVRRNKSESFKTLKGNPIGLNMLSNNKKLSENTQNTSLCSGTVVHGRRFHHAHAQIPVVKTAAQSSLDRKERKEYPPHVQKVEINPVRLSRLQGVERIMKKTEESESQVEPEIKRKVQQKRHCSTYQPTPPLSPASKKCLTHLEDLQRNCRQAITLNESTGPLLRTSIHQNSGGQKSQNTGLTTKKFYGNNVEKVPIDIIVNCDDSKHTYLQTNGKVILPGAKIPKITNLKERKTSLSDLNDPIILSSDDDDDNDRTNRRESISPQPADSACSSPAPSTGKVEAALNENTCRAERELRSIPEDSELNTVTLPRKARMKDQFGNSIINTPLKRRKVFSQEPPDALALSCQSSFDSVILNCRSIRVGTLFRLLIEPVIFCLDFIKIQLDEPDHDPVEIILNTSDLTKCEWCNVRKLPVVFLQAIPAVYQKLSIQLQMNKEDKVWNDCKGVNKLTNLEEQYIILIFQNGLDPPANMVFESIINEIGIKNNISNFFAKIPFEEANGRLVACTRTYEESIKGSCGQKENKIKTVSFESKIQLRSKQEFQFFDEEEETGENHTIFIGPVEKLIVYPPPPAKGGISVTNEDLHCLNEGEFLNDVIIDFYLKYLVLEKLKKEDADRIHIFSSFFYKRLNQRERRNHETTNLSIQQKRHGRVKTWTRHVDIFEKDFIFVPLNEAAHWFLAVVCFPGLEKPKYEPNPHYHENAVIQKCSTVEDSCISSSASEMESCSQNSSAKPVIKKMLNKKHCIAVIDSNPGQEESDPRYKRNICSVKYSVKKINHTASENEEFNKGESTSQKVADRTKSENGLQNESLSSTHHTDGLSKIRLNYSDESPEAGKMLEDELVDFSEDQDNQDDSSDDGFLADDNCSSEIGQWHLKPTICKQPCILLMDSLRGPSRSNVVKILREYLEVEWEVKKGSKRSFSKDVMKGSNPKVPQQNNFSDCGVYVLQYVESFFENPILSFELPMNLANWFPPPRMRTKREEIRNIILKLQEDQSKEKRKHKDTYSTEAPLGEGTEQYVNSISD

[6] = target: T2, Sentrin-specific protease 7 (Homo sapiens, UniProt Q9BQF6); experiment: inhibition of human SENP7 cleavage activity – biochemical, luminescence, set 2, SAR follow-up (AID 588600); assay type: functional
T2 sequence (Q9BQF6 whole entry): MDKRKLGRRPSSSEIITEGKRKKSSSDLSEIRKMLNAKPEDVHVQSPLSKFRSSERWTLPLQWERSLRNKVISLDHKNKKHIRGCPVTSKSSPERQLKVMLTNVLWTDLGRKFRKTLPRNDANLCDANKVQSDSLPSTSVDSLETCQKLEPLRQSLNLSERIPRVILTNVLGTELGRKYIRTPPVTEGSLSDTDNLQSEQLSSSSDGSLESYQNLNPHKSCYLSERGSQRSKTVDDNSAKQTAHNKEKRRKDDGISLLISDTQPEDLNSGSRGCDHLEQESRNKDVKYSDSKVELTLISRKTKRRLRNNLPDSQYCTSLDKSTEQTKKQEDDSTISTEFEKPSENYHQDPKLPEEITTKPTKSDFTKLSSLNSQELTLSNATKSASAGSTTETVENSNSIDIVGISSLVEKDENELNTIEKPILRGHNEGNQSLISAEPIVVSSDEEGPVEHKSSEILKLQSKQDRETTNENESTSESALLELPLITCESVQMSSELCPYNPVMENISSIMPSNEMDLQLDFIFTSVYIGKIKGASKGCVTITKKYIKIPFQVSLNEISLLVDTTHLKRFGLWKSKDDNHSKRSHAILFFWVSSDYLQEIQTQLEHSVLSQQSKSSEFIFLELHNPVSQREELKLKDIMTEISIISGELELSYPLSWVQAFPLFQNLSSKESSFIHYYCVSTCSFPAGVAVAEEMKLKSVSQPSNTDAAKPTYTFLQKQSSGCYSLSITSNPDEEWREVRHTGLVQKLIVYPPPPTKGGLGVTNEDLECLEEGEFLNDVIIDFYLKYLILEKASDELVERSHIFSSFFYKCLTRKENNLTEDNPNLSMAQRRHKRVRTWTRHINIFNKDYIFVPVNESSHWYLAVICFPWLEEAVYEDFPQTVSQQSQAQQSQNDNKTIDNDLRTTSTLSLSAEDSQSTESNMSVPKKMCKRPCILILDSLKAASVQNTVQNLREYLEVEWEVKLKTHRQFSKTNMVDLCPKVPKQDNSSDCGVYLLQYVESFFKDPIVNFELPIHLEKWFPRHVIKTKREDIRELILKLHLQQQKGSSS

Caspase-3 = target: T3, Caspase-3 (Homo sapiens, UniProt P42574); experiment: inhibition of recombinant caspase-3 activity – biochemical, luminescence, set 2, selectivity assay for SENP protease inhibitor project, SAR follow-up (AID 588599); assay type: functional
T3 sequence (P42574 whole entry): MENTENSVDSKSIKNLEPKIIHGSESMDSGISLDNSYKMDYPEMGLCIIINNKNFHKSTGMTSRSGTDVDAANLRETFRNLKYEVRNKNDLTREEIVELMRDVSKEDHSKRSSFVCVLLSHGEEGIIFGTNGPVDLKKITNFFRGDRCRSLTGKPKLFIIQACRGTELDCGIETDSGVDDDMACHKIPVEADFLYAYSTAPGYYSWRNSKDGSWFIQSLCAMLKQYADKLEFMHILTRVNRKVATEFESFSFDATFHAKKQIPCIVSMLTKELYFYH

[7] = target: T4, Sentrin-specific protease 8 (Homo sapiens, UniProt Q96LD8); experiment: inhibition of sentrin protease 8 – biochemical, luminescence, set 2, SAR follow-up (AID 588601); assay type: functional
T4 sequence (Q96LD8 whole entry): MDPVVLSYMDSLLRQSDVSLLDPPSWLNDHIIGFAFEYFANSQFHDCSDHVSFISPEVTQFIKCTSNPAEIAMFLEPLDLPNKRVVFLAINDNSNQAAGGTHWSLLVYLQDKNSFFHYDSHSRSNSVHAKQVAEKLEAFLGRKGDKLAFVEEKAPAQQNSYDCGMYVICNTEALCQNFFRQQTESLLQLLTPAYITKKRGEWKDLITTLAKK

Genome polyprotein, sequence (P29990 2492-3391 limits assumed): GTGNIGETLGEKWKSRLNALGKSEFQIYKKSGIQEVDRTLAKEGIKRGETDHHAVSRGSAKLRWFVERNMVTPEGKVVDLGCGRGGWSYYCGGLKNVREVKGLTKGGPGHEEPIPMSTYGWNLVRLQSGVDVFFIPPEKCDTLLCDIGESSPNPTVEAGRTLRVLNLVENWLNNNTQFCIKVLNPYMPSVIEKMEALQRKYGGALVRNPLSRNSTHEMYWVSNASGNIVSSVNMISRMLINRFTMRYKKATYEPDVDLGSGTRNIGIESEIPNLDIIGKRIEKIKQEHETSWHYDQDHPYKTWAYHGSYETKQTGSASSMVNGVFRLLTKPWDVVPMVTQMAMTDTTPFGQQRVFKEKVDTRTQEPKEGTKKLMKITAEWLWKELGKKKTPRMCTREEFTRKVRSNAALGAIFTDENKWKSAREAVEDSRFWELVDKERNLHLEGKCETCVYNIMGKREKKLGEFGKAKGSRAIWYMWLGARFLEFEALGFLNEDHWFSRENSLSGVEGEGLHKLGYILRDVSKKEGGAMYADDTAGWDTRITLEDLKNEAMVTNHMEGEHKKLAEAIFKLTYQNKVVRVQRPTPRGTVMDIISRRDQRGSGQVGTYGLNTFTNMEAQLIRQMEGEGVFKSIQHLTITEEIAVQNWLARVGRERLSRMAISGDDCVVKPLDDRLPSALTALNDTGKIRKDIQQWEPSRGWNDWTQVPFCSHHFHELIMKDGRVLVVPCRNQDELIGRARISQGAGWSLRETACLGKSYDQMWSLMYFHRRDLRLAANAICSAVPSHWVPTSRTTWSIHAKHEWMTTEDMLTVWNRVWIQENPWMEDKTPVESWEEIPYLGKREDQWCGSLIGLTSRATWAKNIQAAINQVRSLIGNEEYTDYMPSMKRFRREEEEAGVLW
Dual specificity protein kinase CLK1, sequence (P49759 whole entry): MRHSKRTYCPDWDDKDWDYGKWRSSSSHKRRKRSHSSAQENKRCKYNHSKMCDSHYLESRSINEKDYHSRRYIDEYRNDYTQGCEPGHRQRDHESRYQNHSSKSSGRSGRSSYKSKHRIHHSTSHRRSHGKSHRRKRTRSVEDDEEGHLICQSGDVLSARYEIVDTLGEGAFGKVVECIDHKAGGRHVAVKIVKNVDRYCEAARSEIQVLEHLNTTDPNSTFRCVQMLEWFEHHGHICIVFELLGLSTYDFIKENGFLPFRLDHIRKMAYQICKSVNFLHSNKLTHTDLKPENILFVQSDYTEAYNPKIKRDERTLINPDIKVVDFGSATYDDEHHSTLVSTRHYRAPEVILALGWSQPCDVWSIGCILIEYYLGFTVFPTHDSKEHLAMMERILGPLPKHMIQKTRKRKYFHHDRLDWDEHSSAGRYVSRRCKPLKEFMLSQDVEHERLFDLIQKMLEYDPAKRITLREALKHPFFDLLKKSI

`O=C1NC(=S)NC(=O)C1=Cc1c(Cl)cccc1Cl` was tested, and the CC50 (Vero) was > 40 µM (active) and the IC50 (Genome polyprotein) was 26.9 µM (active).
For `CNC(=O)CCc1nc(-c2ccc(F)cc2)no1`, the IC50 (Jurkat) was > 80 µM (inactive), the IC50 (HEK293 [1]) was > 80 µM (inactive) and the IC50 (HEK293 [2]) was > 80 µM (inactive).
For `c1cncc(CNc2nccc(-c3ccc4cn[nH]c4c3)n2)c1`, the AC50 [3] was 0.0754 µM (active) and the AC50 [4] was 13.8 µM (active).
`COc1cccc2sc(NC(=O)c3ccc(OCc4nccn4C)cc3)nc12` was tested, and the IC50 [5] was 77.2 µM (active), the IC50 [6] was > 99 µM (inactive) and the IC50 (Caspase-3) was 89.9 µM (active). For the same molecule, the IC50 [7] was 77.4 µM (active).
